IC50 data for 20 molecules are collected here from patent US7838674B2, “Tetracyclic lactame derivatives” (Novartis AG, priority 2007, dated 2010).

Counter-ions that a name gives are not always drawn.

The target in this experiment is T1, MAPKAPK2 enzyme (HIS-MK2, Invitrogen PV4019) (Homo sapiens, UniProt P49137).
T1 construct: His; purchased Invitrogen PV4019
In words: Alternative MAPKAPK2 assay (Caliper microfluidic mobility shift, HSP27-peptide). Format: biochemical. The conditions noted are these: HIS-MK2 0.013 nM, ATP 10 μM, 60 min at 30° C.

T1 sequence (P49137 whole entry): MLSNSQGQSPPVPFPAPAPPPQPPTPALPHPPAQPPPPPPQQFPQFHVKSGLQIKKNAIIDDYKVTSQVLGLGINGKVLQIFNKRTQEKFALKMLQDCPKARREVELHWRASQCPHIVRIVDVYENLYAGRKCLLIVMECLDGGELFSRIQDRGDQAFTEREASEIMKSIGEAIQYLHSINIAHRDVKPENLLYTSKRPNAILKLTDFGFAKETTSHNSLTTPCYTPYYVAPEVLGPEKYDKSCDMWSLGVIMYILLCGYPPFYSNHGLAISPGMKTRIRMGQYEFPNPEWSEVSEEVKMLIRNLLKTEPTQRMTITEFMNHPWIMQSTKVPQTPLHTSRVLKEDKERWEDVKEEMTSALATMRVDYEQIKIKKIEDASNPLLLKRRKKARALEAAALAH

For `CN1CC2(C1)c1[nH]c3c(c1C(=O)NC21CC1)CCc1cnc(-c2cccc(C(=O)NCc4ccccc4)c2)cc1-3` [Example 226, 2-[3-(1-Amino-cyclopropyl)-1-methyl-azetidin-3-yl]-8-(3-benzylcarbamoyl-phenyl)-4,5-dihydro-1H-pyrrolo[2,3-f]isoquinoline-3-carboxylic acid lactam], the IC50 – broadly, the point on the concentration scale where inhibition reaches its midpoint – is less than 0.003 µM.
`COc1ccc(-c2cc3c(cn2)CCc2c-3[nH]c3c2C(=O)NCC32CCC2)cc1F` [Example 299, 2-(3-Fluoro-4-methoxy-phenyl)-10-spirocyclobutyl-5,6,8,9,10,11-hexahydro-3,8,11-triaza-benzo[a]fluoren-7-one]: the IC50 was found to be 0.039 µM.
Take `O=C1NCC2(CNC2)c2[nH]c3c(c21)CCc1cnc(-c2ccc(N4CCOCC4)nc2)nc1-3` [Example 329, 2-(3-Aminomethyl-azetidin-3-yl)-8-(6-morpholin-4-yl-pyridin-3-yl)-4,5-dihydro-1H-1,7,9-triaza-cyclopenta[a]naphthalene-3-carboxylic acid lactam]: the IC50 was found to be 0.006 µM.
On to `CC(C)Oc1ccc(-c2cc3c(cn2)CCc2c-3[nH]c3c2C(=O)NC2(CC2)C32CN(C)C2)cn1` [Example 254, 2-[3-(1-Amino-cyclopropyl)-1-methyl-azetidin-3-yl]-8-(6-isopropoxy-pyridin-3-yl)-4,5-dihydro-1H-pyrrolo[2,3-f]isoquinoline-3-carboxylic acid lactam], for which the IC50 was less than 0.003 µM.
On to `CN1CC2(CNC(=O)c3c4c(n(C)c32)-c2cc(-c3ccc(F)nc3)ncc2CC4)C1` [Example 161, 2-(3-Aminomethyl-1-methyl-azetidin-3-yl)-8-(6-fluoro-pyridin-3-yl)-1-methyl-4,5-dihydro-1H-pyrrolo[2,3-f]isoquinoline-3-carboxylic acid lactam], for which the 50% inhibitory concentration (IC50) was found to be 0.086 µM.
The same measure for `C#Cc1cc(-c2cc3c(cn2)CCc2c-3[nH]c3c2C(=O)NC2(CC2)C3)ccc1OC` [Example 75, 2-(1-Amino-cyclopropylmethyl)-8-(3-ethynyl-4-methoxy-phenyl)-4,5-dihydro-1H-pyrrolo[2,3-f]isoquinoline-3-carboxylic acid lactam]: 0.098 µM.
The same measure for `CN1CCOc2cc(-c3cc4c(cn3)CCc3c5c(n(C)c3-4)CC3(CNC3)NC5=O)ccc21` [Example 145, 2-(3-Amino-azetidin-3-ylmethyl)-1-methyl-8-(4-methyl-3,4-dihydro-2H-benzo[1,4]oxazin-7-yl)-4,5-dihydro-1H-pyrrolo[2,3-f]isoquinoline-3-carboxylic acid lactam hydrochloride]: 0.029 µM; for `COc1ncc(-c2cc3c(cn2)CCc2c-3[nH]c3c2C(=O)NC2(CC2)C3)s1` [Example 283, 2-(1-Amino-cyclopropylmethyl)-8-(2-methoxy-5-thiazolyl)-4,5-dihydro-1H-pyrrolo[2,3-f]isoquinoline-3-carboxylic acid lactam]: 0.098 µM.
Take `O=C1NC2(CC2)Cc2[nH]c3c(c21)CCc1cnc(-c2ccc(CO)nc2)cc1-3` [Example 240, 2-(1-Amino-cyclopropylmethyl)-8-(6-hydroxymethyl-pyridin-3-yl)-4,5-dihydro-1H-pyrrolo[2,3-f]isoquinoline-3-carboxylic acid lactam]: the concentration for half-maximal inhibition (IC50) came to 0.011 µM.
In the case of `COc1ccc(-c2ncc3c(n2)-c2c(c4c(n2C)C2(CNC2)CNC4=O)CC3)cc1` [Example 218, 2-(3-Aminomethyl-azetidin-3-yl)-8-(4-methoxy-phenyl)-1-methyl-4,5-dihydro-1H-1,7,9-triaza-cyclopenta[a]naphthalene-3-carboxylic acid lactam hydrochloride], the half-inhibitory concentration (IC50) worked out at 0.03 µM.
In the case of `O=C1NC2(CC2)C2(CC2)c2[nH]c3c(c21)CCc1cnc(-c2ccc(OC4CCOCC4)nc2)cc1-3` [Example 198, 2-(1′-Amino-bicyclopropyl-1-yl)-8-[6-(tetrahydro-pyran-4-yloxy)-pyridin-3-yl]-4,5-dihydro-1H-pyrrolo[2,3-f]isoquinoline-3-carboxylic acid lactam] it was 0.02 µM; in that of `Cn1c2c(c3c1-c1cc(-c4ccc(N5CCCCC5)nc4)ncc1CC3)C(=O)NC1(CNC1)C2` [Example 149, 2-(3-Amino-azetidin-3-ylmethyl)-8-(6-piperidinyl-pyridin-3-yl)-1-methyl-4,5-dihydro-1H-pyrrolo[2,3-f]isoquinoline-3-carboxylic acid lactam hydrochloride], 0.023 µM; in that of `COCCN1CC2(CNC(=O)c3c2[nH]c2c3CCc3cnc(-c4cccc(Cl)c4)cc3-2)C1` [Example 181, 2-[3-Aminomethyl-1-(2-methoxy-ethyl)-azetidin-3-yl]-8-(3-chloro-phenyl)-4,5-dihydro-1H-pyrrolo[2,3-f]isoquinoline-3-carboxylic acid lactam], 0.079 µM.
As to `CC(C)Oc1ccc(-c2cc3c(cn2)CCc2c-3[nH]c3c2C(=O)NCC32CNC2)cn1` [Example 186, 2-(3-Aminomethyl-azetidin-3-yl)-8-(6-isopropoxy-pyridin-3-yl)-4,5-dihydro-1H-pyrrolo[2,3-f]isoquinoline-3-carboxylic acid lactam hydrochloride], the IC50 is less than 0.003 µM.
As to `Nc1ccc(-c2cc3c(cn2)CCc2c-3[nH]c3c2C(=O)NC2(CCC2)C3)cn1` [Example 101, 2-(1-Amino-cyclobutylmethyl)-8-(6-amino-pyridin-3-yl)-4,5-dihydro-1H-pyrrolo[2,3-f]isoquinoline-3-carboxylic acid lactam], the half-inhibitory concentration (IC50) was 0.098 µM.
In the case of `CN1CC2(C1)c1[nH]c3c(c1C(=O)NC21CC1)CCc1cnc(-c2cccc(Cl)c2)cc1-3` [Example 224, 2-[3-(1-Amino-cyclopropyl)-1-methyl-azetidin-3-yl]-8-(3-chlorophenyl)-4,5-dihydro-1H-pyrrolo[2,3-f]isoquinoline-3-carboxylic acid lactam] it was less than 0.003 µM.
For `Cn1c2c(c3c1-c1cc(-c4cncc(-c5ccccc5F)c4)ncc1CC3)C(=O)NC1(CNC1)C2` [Example 135, 2-(3-Amino-azetidin-3-ylmethyl)-8-[5-(2-fluoro-phenyl)-pyridin-3-yl]-1-methyl-4,5-dihydro-1H-pyrrolo[2,3-f]isoquinoline-3-carboxylic acid lactam hydrochloride], the half-inhibitory concentration (IC50) amounted to 0.032 µM.
As to `O=C1NCC2(CNC2)c2[nH]c3c(c21)CCc1cnc(-c2ccc(F)nc2F)cc1-3` [Example 205, 2-(3-Aminomethyl-azetidin-3-yl)-8-(2,6-difluoro-pyridin-3-yl)-4,5-dihydro-1H-pyrrolo[2,3-f]isoquinoline-3-carboxylic acid lactam hydrochloride], the IC50 is less than 0.003 µM.
The same measure for `Cn1c2c(c3c1-c1cc(-c4cccnc4)ncc1CC3)C(=O)NC1(CNC1)C2` [Example 153, 2-(3-Amino-azetidin-3-ylmethyl)-8-(pyridin-3-yl)-1-methyl-4,5-dihydro-1H-pyrrolo[2,3-f]isoquinoline-3-carboxylic acid lactam hydrochloride]: 0.017 µM; for `COc1ccc(-c2cc3c(cn2)CCc2c-3[nH]c3c2C(=O)NCC32CNC2)cc1` [Example 165, 2-(3-Aminomethyl-azetidin-3-yl)-8-(4-methoxy-phenyl)-4,5-dihydro-1H-pyrrolo[2,3-f]isoquinoline-3-carboxylic acid lactam hydrochloride]: less than 0.003 µM.
